Counter-ions that a name gives are not always drawn.
How the values were obtained:
IRAK4 [1] = target: T1, IRAK4 (Homo sapiens, UniProt Q9NWZ3); assay: IRAK4 PhosphoSens Biochemical Assay (BIOCHEM); settings: 200 μM ATP; 10 μM peptide substrate AQT0326; 1 nM IRAK4; room temperature; 240 minutes
T1 sequence (Q9NWZ3 1-460): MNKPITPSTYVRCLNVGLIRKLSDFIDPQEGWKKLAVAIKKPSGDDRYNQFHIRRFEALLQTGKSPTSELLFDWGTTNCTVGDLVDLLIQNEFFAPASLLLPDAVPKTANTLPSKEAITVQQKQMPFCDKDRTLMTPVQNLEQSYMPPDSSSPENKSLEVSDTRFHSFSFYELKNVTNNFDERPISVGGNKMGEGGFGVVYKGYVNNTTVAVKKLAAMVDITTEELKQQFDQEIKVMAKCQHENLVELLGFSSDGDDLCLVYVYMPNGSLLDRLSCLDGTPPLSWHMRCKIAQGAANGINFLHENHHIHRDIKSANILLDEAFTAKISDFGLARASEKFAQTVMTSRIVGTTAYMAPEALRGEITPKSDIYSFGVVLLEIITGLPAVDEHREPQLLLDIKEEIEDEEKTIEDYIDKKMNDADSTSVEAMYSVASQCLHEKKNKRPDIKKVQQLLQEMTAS
Method: The PhosphoSens® biochemical assay was performed as described by the vendor (AssayQuant Technologies Inc. Marlborough, MA). A 1.25× stock solution of IRAK4 (PV4002, ThermoFisher Scientific, Waltham, MA) and a 5× stock solution of ATP and Sox conjugated peptide substrate, AQT0326 (CSKS-AQT0326B, AssayQuant Technologies), were prepared in 1× kinase reaction buffer consisting of 50 mM HEPES, pH 7.5, 0.01% Brij-35, 0.5 mM EGTA, 20 mM MgCl2 and 1 mM DTT. 10 μL of the ATP and substrate solution mix, for a final concentration of 200 μM ATP and 10 μM peptide substrate, was added to a Corning 3574 384-well, white, non-binding surface microtiter plate containing 0.5 μL of serially diluted test compounds prepared in DMSO. The reactions were started with the addition of 40 μL of the enzyme solution, for a final IRAK4 concentration of 1 nM, and monitored every 71 seconds for 240 minutes at λEX 360/λEM 485 in a BioTek Synergy H4 plate reader (Agilent Technologies, Santa Clara, CA) at room temperature. The initial linear portions of the progress curves were fit according to a linear equation to yield the slopes and converted to % inhibition based on a value of 100% activity for the no inhibitor treated control. IC50 values of each compound were obtained by fitting the % inhibition-compound concentration curves using Dotmatics software (Dotmatics, Bishops Stortford, Hertfordshire, England).

IRAK4 [2] = target: T1, IRAK4; assay: ALE THP1 HTRF (IRAK4 degradation in THP1 cells, HTRF with anti-IRAK4 antibodies); format: cell-based; set-up: THP1 Homogeneous Time Resolved Fluorescence (ALE THP1 HTRF) Procedure; endogenous in cells; host or cells: THP1; settings: THP1 cell lysate; for DC50: read-out: ALE THP1 HTRF EC50
Method: Cell culture media was prepared in a tissue culture hood in a sterile environment by adding 10% FBS and 1% Penicillin Streptomycin to 500 mL no phenol red RPMI 1640 media. The media was filtered through a Nalgene Bottle Top Filter and stored at 4° C.
For Homogenous Time Resolved Fluorescence (HTRF) assays, a Cisbio HTRF kit was used, which included: Lysis Buffer #1 4×, Blocking Reagent #3 100×, 20× Antibody 1 (Anti-IRAK4 d2), 20× Antibody 2 (Anti-IRAK4 k), and Detection Buffer.
4× Lysis Buffer was stored at 4° C. For use as 1× Lysis buffer, the 4× solution was diluted with de-ionized water (distilled water, Gibco Cat. #15230279) and 100× Blocking Reagent in a 1:3:0.04 volume ratio.
20× Antibody Solution aliquots were stored at −80° C. and the Detection Buffer was stored at 4° C. For use as a 1× Antibody Solution, the 20× Antibody Solution aliquot was diluted with Detection Buffer in a 1:19 volume ratio.
Cells were lysed at room temperature for 45 min with shaking. A BCA protein assay was performed and normalization was conducted to the desired total protein concentration with 1× lysis buffer. Next, 1× Antibody Solutions were prepared by adding 380 μL Detection Buffer to 20 μL 20× Antibody Solution aliquots and mixing well. 1× Antibody Solutions were combined 1:1 and briefly vortexed. For control wells, 20 μL 1× anti IRAK4-k Antibody Solution was saved. The 384-well plate (ProxiPlate-384 Plus, Perkin Elmer Cat. #6008289) was loaded by adding 4 μL of the mixed Antibody Solution to empty wells using a single channel repeater. Using a multi-channel repeater, 16 μL lysate was added per well, and any bubbles that were formed were popped with 20 μL pipette tips and Kimwipe edges. In column 10, triplicates of each control were prepared. In wells A10, B10, and C10, buffer control was prepared by adding 16 μL Lysis Buffer and 4 μL Detection Buffer. In wells D10, E10, and F10, cryptate control was prepared by adding 16 μL Lysis Buffer, 2 μL Detection Buffer, and 2 μL 1× anti-IRAK4-k Antibody Solution. In wells G10, H10, and I10, a negative control was prepared by adding 16 μL Lysis Buffer and 4 μL mixed Antibody Solution. The plate was sealed with a clear seal and covered with an aluminum lid. The plate was spun down at 800 g for 5 min and incubated in the dark at room temperature overnight. The next day, the plate was spun down at 800 g for 5 min. The samples were analyzed by a plate reader (Envision, PerkinElmer) using the Desnor 384 HTRF program.

| SMILES | IC50 (IRAK4 [1]) [nM] | ALE THP1 HTRF YMIN (IRAK4 [2]) [%] | DC50 (IRAK4 [2]) [nM] |
| --- | --- | --- | --- |
| N[C@@H]1C[C@@H](F)CN(c2ccn3ncc(C(=O)Nc4cn([C@H]5CC[C@H](C(=O)N6CCC(Nc7cccc(C8CCC(=O)NC8=O)c7)CC6)CC5)nc4C(F)(F)F)c3n2)C1 (some centres unmarked) [Compound P-9] | 0.3 | 86 | > 10000 |
| N[C@@H]1C[C@@H](F)CN(c2ccn3ncc(C(=O)Nc4cn([C@H]5CC[C@H](CN6CCC(CNc7ccc(C8CCC(=O)NC8=O)cc7)CC6)CC5)nc4C(F)(F)F)c3n2)C1 (some centres unmarked) [Compound P-3] | 0.3 | 81 | 177 |
| N[C@@H]1C[C@@H](F)CN(c2ccn3ncc(C(=O)Nc4cn([C@H]5CC[C@H](CN6CCN(c7ccc(C8CCC(=O)NC8=O)cc7)CC6)CC5)nc4C(F)(F)F)c3n2)C1 (some centres unmarked) [Compound P-10] | 0.6 | 20 | 964 |
| N[C@@H]1C[C@@H](F)CN(c2ccn3ncc(C(=O)Nc4cn([C@H]5CC[C@H](C(=O)N6CCC(CNc7ccc(C8CCC(=O)NC8=O)cc7)CC6)CC5)nc4C(F)(F)F)c3n2)C1 (stereo partly drawn) [Compound P-2, N-[1-[4-[4-[[4-(2,6-Dioxo-3-piperidyl)anilino]methyl]piperidine-1-carbonyl]cyclohexyl]-3-(trifluoromethyl)pyrazol-4-yl]-5-[(3R,5R)-3-amino-5-fluoro-1-piperidyl]pyrazolo[1,5-a]pyrimidine-3-carboxamide hydrochloride] | 0.3 | 68 | 96 |
| N[C@@H]1C[C@@H](F)CN(c2ccn3ncc(C(=O)Nc4cn([C@H]5CC[C@H](CCN6CCN(c7ccc(C8CCC(=O)NC8=O)cc7)CC6)CC5)nc4C(F)(F)F)c3n2)C1 (stereo partly drawn) [Compound P-11, 5-((3R,5R)-3-Amino-5-fluoropiperidin-1-yl)-N-(1-((1r,4r)-4-(2-(4-(4-(2,6-dioxopiperidin-3-yl)phenyl)piperazin-1-yl)ethyl)cyclohexyl)-3-(trifluoromethyl)-1H-pyrazol-4-yl) pyrazolo[1,5-a]pyrimidine-3-carboxamide hydrochloride] | 0.4 | 19 | 15 |
| N[C@@H]1C[C@@H](F)CN(c2ccn3ncc(C(=O)Nc4cn([C@H]5CC[C@H](C(=O)N6CCC(CNc7cccc(C8CCC(=O)NC8=O)c7)CC6)CC5)nc4C(F)(F)F)c3n2)C1 (stereo partly drawn) [Compound P-1, N-[1-[4-[4-[[3-(2,6-dioxo-3-piperidyl)anilino]methyl]piperidine-1-carbonyl]cyclohexyl]-3-(trifluoromethyl)pyrazol-4-yl]-5-[(3R,5R)-3-amino-5-fluoro-1-piperidyl]pyrazolo[1,5-a]pyrimidine-3-carboxamide hydrochloride salt] | 0.4 | 10 | 7 |
| N[C@@H]1C[C@@H](F)CN(c2ccn3ncc(C(=O)Nc4cn([C@H]5CC[C@H](C(=O)N6CCC(Nc7ccc(C8CCC(=O)NC8=O)cc7)CC6)CC5)nc4C(F)(F)F)c3n2)C1 (some centres unmarked) [Compound P-7] | 0.3 | 52 | > 10000 |
| N[C@@H]1C[C@@H](F)CN(c2ccn3ncc(C(=O)Nc4cn([C@H]5CC[C@H](C(=O)NC6CCN(c7ccc(C8CCC(=O)NC8=O)cn7)CC6)CC5)nc4C(F)F)c3n2)C1 (stereo partly drawn) [Compound P-32, N-[3-(Difluoromethyl)-1-[4-[[1-[5-(2,6-dioxo-3-piperidyl)-2-pyridyl]-4-piperidyl]carbamoyl]cyclohexyl]pyrazol-4-yl]-5-[(3R,5R)-3-amino-5-fluoro-1-piperidyl]pyrazolo[1,5-a]pyrimidine-3-carboxamide hydrochloride] |  | 21 | 5 |
| N[C@@H]1C[C@@H](F)CN(c2ccn3ncc(C(=O)Nc4cn([C@H]5CC[C@H](C(=O)NC6CCN(c7cccc(C8CCC(=O)NC8=O)c7)CC6)CC5)nc4C(F)F)c3n2)C1 (some centres unmarked) [Compound P-14] |  | 64 | > 10000 |
| N[C@@H]1C[C@@H](F)CN(c2ccn3ncc(C(=O)Nc4cn([C@H]5CC[C@H](CCN6CCN(c7cccc(C8CCC(=O)NC8=O)c7)CC6)CC5)nc4C(F)F)c3n2)C1 (some centres unmarked) [Compound P-22] |  | 43 | 3010 |
| CN(CC1CCN(C[C@H]2CC[C@H](n3cc(NC(=O)c4cnn5ccc(N6C[C@H](N)C[C@@H](F)C6)nc45)c(C(F)F)n3)CC2)CC1)c1cccc(C2CCC(=O)NC2=O)c1 (stereo partly drawn) [Compound P-19, N-[3-(Difluoromethyl)-1-[4-[4-[[3-(2,6-dioxo-3-piperidyl)-N-methyl-anilino]methyl]-1-piperidyl]methyl]cyclohexyl]pyrazol-4-yl]-5-[(3R,5R)-3-amino-5-fluoro-1-piperidyl]pyrazolo[1,5-a]pyrimidine-3-carboxamide dihydrochloride] |  | 11 | 10 |
| N[C@@H]1C[C@@H](F)CN(c2ccn3ncc(C(=O)Nc4cn([C@H]5CC[C@H](CN6CCC(CNc7cccc(C8CCC(=O)NC8=O)c7)CC6)CC5)nc4C(F)(F)F)c3n2)C1 (stereo partly drawn) [Compound P-6, 5-((3R,5R)-3-amino-5-fluoropiperidin-1-yl)-N-(1-((1r,4r)-4-((4-(((3-(2,6-dioxopiperidin-3-yl)phenyl)amino)methyl)piperidin-1-yl)methyl)cyclohexyl)-3-(trifluoromethyl)-1H-pyrazol-4-yl) pyrazolo[1,5-a]pyrimidine-3-carboxamide hydrochloride] |  | 15 | 17 |
| N[C@@H]1C[C@@H](F)CN(c2ccn3ncc(C(=O)Nc4cn([C@H]5CC[C@H](CN6CCC7(CC6)CN(c6cccc(C8CCC(=O)NC8=O)c6)C7)CC5)nc4C(F)F)c3n2)C1 (some centres unmarked) [Compound P-18] |  | 13 | 9180 |
| N[C@@H]1C[C@@H](F)CN(c2ccn3ncc(C(=O)Nc4cn([C@H]5CC[C@H](CCN6CCC(c7ccc(C8CCC(=O)NC8=O)cc7)CC6)CC5)nc4C(F)F)c3n2)C1 (some centres unmarked) [Compound P-20] |  | 12 | 11 |

Reference: US20260317333A1, “Heteroaryl Compounds as Ligand Directed Degraders of IRAK4” (Celgene Corporation, priority 2023, published 2026)
